Earlier results as cited in US20240339215A1, “SYSTEM AND METHOD FOR DRUG SELECTION” (Board of Regents, The University of Texas System, priority 2023, published 2024).
Like-named read-outs stand apart in the source and are kept apart here.

Test system: breast cancer cell lines

Measured: synergistic effect of combination

Cc1cc([C@@H](C)Nc2ccccc2C(=O)O)c2nc(N3CCOCC3)cc(=O)n2c1 [AZD6482]
synergistic effects: combined with Linsitinib | combined with MK-1775 (Adavosertib) | combined with Sapitinib | combined with Vorinostat
